The values that follow come from ChEMBL document CHEMBL4811252, “Identification of novel 1,3-diaryl-1,2,4-triazole-capped histone deacetylase 6 inhibitors with potential anti-gastric cancer activity” (Eur J Med Chem, 2021).

The structures appear in SMILES notation. Bounds are passed on as bounds.

Test [1] concerns the target T1, Protein deacetylase HDAC6 (Homo sapiens) (UniProt Q9UBN7).
T1 sequence (whole entry): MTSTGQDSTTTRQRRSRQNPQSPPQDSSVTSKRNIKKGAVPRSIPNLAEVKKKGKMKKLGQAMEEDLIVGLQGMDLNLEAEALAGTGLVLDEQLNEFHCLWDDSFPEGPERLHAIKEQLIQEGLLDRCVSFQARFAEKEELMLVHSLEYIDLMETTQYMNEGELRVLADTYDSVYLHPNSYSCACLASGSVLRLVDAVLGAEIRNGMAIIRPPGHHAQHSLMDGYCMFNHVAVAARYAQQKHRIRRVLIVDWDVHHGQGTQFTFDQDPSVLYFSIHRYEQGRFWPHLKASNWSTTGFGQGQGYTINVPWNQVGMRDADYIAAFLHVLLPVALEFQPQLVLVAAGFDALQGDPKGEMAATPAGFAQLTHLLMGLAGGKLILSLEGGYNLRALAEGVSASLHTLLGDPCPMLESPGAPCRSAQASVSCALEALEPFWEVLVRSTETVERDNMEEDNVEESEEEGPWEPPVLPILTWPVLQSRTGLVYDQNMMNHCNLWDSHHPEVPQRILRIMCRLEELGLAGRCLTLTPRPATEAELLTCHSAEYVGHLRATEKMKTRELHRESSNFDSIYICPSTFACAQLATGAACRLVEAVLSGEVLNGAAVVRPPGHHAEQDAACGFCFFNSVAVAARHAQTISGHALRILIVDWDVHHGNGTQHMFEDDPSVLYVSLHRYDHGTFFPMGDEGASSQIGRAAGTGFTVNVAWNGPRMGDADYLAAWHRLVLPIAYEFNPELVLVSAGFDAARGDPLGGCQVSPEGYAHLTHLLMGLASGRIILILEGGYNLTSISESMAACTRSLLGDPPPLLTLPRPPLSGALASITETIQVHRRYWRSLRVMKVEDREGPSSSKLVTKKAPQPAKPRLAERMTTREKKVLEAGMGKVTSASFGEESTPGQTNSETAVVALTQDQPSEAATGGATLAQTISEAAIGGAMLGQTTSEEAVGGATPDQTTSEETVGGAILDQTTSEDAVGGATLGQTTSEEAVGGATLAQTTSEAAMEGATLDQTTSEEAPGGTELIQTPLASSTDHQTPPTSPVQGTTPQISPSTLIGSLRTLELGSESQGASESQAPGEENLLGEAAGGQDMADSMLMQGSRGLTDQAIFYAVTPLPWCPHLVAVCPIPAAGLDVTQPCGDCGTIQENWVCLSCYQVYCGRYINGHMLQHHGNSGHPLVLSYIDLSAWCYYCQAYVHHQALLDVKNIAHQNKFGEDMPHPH
Conditions: Sf9, dose 100.0 nM, time 40.0 min.

Test [2] has as its target T2, Histone deacetylase 1 (Homo sapiens, UniProt Q13547). The note with it: dose 100.0 nM, time 40.0 min.
Test [3] deals with T3, Protein deacetylase HDAC6 (Homo sapiens, UniProt Q9UBN7).
T3 sequence (Q9UBN7 whole entry): T1 sequence (whole entry)
In words: Inhibition of recombinant full length human HDAC6 expressed in baculovirus infected Sf9 cells using Z-(Ac)-Lys-AMC as substrate incubated for 40 mins by fluorescence based assay.

The target in test [4] is T2, Histone deacetylase 1. Briefly: Inhibition of recombinant human HDAC1 using Z-(Ac)-Lys-AMC as substrate incubated for 40 mins by fluorescence based assay.
Test [5] deals with MGC-803. In words: Antiproliferative activity against human MGC803 cells incubated for 72 hrs by MTT assay. The class given is functional, cell-based. Conditions: MGC-803, 72 h. On the technique in general: Tetrazolium assays rely on reduction of a dye to a coloured formazan, in cell work by metabolically active cells.

T2 sequence (Q13547 whole entry): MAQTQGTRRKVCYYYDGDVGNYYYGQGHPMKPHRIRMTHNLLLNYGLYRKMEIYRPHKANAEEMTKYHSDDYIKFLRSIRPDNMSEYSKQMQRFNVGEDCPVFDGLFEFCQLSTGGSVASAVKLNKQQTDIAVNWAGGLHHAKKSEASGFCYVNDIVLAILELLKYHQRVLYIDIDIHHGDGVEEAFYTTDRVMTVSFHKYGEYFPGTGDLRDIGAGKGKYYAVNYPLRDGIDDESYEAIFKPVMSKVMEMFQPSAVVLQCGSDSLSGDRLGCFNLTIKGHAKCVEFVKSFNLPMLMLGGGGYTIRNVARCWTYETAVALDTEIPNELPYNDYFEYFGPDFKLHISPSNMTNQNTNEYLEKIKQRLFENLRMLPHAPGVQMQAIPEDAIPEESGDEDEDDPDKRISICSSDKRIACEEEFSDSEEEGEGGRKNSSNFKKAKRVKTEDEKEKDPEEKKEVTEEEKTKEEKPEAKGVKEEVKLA

`O=C(NO)c1ccc(NCc2nc(-c3ccccc3)nn2-c2ccc(C(F)(F)F)cc2)cc1`: the inhibition (as a rule, the relative decrease from the control value, in per cent) in test [1] is 38.9%; in test [2], 12.8%.

With `O=C(NO)c1ccc(NCc2nc(-c3ccc(Br)cc3)nn2-c2ccccc2)cc1`, the inhibition in test [1] was determined as 54.7%; in test [2], 13.2%.

On to `O=C(NO)c1ccc(NCc2nc(-c3sccc3Br)nn2-c2ccccc2)cc1`, for which the IC50 (as a rule, the point on the concentration scale where inhibition reaches its midpoint) amounted to 54.9 nM in test [3], 2080 nM in test [4] and 6.32 µM in test [5]. Besides, the inhibition is 71.1% in test [1] and 23.7% in test [2].

On to `O=C(NO)c1ccc(NCc2nc(-c3ccc(C(F)(F)F)cc3)nn2-c2ccccc2)cc1`, for which the inhibition in test [1] came to 41.6%; in test [2], 4.9%.

In the case of `CCc1ccc(-c2nc(CNc3ccc(C(=O)NO)cc3)n(-c3ccccc3)n2)cc1`, the values for the inhibition in test [1] and in test [2] were 54.6% and 13.2%, respectively.

As to `Nc1ccccc1NC(=O)c1ccc(NCc2nc(-c3ccccc3)nn2-c2ccccc2)cc1`, the inhibition is 5% in test [1] and 32% in test [2].

In the case of `O=C(NO)c1ccc(NCc2nc(-c3ccc(Cl)s3)nn2-c2ccccc2)cc1`, the inhibition worked out at 39.8% in test [1] and 8.3% in test [2].

With `O=C(NO)c1ccc(NCc2nc(-c3ccccn3)nn2-c2ccccc2)cc1`, the values for the inhibition in test [1] and in test [2] were 58.6% and 16%, respectively.

In the case of `COc1ccc(-c2nc(CNc3ccc(C(=O)NO)cc3)n(-c3ccccc3)n2)cc1`, the IC50 was 163 nM in test [3], 2860 nM in test [4] and > 20 µM in test [5]. In addition, the inhibition amounted to 77.6% in test [1] and 33.4% in test [2].

As to `COc1ccc(-n2nc(-c3ccccc3)nc2CNc2ccc(C(=O)NO)cc2)cc1`, the IC50 in test [3] came out at 127 nM; in test [4], 883 nM; in test [5] it was 7.05 µM. Further, the inhibition in test [1] came to 63.4%; in test [2] it was 26.2%.

`O=C(NO)c1ccc(NCc2nc(-c3ccc(F)cc3)nn2-c2ccccc2)cc1`: the IC50 in test [3] was found to be 114 nM; in test [4] it was 3400 nM; in test [5], 8.96 µM. For the same compound, the inhibition in test [1] is 70.9%; in test [2], 20.8%.

On to `O=C(NO)c1ccc(NCc2nc(-c3ccsc3)nn2-c2ccccc2)cc1`, for which the inhibition in test [1] is 53.4%; in test [2] it was 15.2%.

Take `O=C(NO)c1ccc(NCc2nc(-c3cc4ccccc4s3)nn2-c2ccccc2)cc1`: the IC50 in test [3] came to 324 nM; in test [4], 1460 nM; in test [5], 6.11 µM. For the same compound, the figures for the inhibition in test [1] and in test [2] were 65.5% and 26%, respectively.

As for `O=C(NO)c1ccc(NCc2nc(-c3ccccc3)nn2-c2ccccc2)cc1`, the IC50 in test [3] stood at 112 nM; in test [4], 2490 nM; in test [5], 17.7 µM. Moreover, the figures for the inhibition in test [1] and in test [2] were 72.6% and 19%, respectively.

For the compound `CC(C)c1ccc(-c2nc(CNc3ccc(C(=O)NO)cc3)n(-c3ccccc3)n2)cc1`, the inhibition in test [1] was determined as 27.6%; in test [2] it was 4.3%.

`O=C(NO)c1ccc(NCc2nc(-c3cccc4cnccc34)nn2-c2ccccc2)cc1`: the inhibition was determined as 40.2% in test [1] and 11.2% in test [2].

Turning to `COc1ccc(-n2nc(-c3ccc(O)cc3)nc2CNc2ccc(C(=O)NO)cc2)cc1`, the IC50 in test [3] is 102 nM; in test [4], 4300 nM; in test [5], > 20 µM. Further, the inhibition was 70.3% in test [1] and 25.9% in test [2].

As for `CCc1ccc(-n2nc(-c3ccccc3)nc2CNc2ccc(C(=O)NO)cc2)cc1`, the inhibition turned out to be 38.3% in test [1] and 10.8% in test [2].

As for `O=C(NO)c1ccc(NCc2nc(-c3cccnc3)nn2-c2ccccc2)cc1`, the figures for the inhibition in test [1] and in test [2] were 57.7% and 12.9%, respectively.

On to `O=C(NO)c1ccc(NCc2nc(-c3ccc(Br)o3)nn2-c2ccccc2)cc1`, for which the inhibition in test [1] stood at 55.8%; in test [2], 13.8%.

Regarding `O=C(NO)c1ccc(NCc2nc(-c3ccccc3Cl)nn2-c2ccccc2)cc1`, the IC50 is 185 nM in test [3], 3830 nM in test [4] and > 20 µM in test [5]. Besides, the results for the inhibition in test [1] and in test [2] were 75% and 15.6%, respectively.

As to `Cc1ccccc1-n1nc(-c2ccccc2)nc1CNc1ccc(C(=O)NO)cc1`, the inhibition came out at 57.1% in test [1] and 17% in test [2].

As for `Cc1ccc(-n2nc(-c3ccccc3)nc2CNc2ccc(C(=O)NO)cc2)cc1C`, the figures for the inhibition in test [1] and in test [2] were 53% and 11%, respectively.

Regarding `O=C(NO)c1ccc(NCc2nc(-c3ccc(Cl)cc3)nn2-c2ccccc2)cc1`, the values for the IC50 in test [3], in test [4] and in test [5] were 181 nM, 2420 nM and 5.97 µM, respectively. Besides, the inhibition in test [1] was found to be 67.2%; in test [2] it was 19.5%.

Turning to `O=C(NO)c1ccc(NCc2nc(-c3ccco3)nn2-c2ccccc2)cc1`, the inhibition in test [1] was determined as 59.9%; in test [2], 16.7%.

In the case of `O=C(NO)c1ccc(NCc2nc(-c3ccccc3)nn2-c2ccc(F)cc2)cc1`, the IC50 was determined as 274 nM in test [3], 1820 nM in test [4] and 10.5 µM in test [5]. In addition, the results for the inhibition in test [1] and in test [2] were 67.6% and 16.3%, respectively.

As to `NC(=O)c1ccc(NCc2nc(-c3ccccc3)nn2-c2ccccc2)cc1`, the inhibition is -4.4% in test [1] and -2.6% in test [2].

Consider `Cc1cccc(-c2nc(CNc3ccc(C(=O)NO)cc3)n(-c3ccccc3)n2)c1`, for which the IC50 in test [3] came to 281 nM; in test [4] it was 5520 nM; in test [5], 8.71 µM. In addition, the inhibition in test [1] turned out to be 64.1%; in test [2], 13%.

On to `O=C(O)c1ccc(NCc2nc(-c3ccccc3)nn2-c2ccccc2)cc1`, for which the inhibition is -0.4% in test [1] and 2.1% in test [2].

On to `O=C(NO)c1ccc(NCc2nc(-c3ccccc3)nn2-c2ccc(Br)cc2)cc1`, for which the IC50 in test [3] was 1730 nM; in test [4], 3200 nM; in test [5], 9.3 µM. Further, the inhibition was 65.9% in test [1] and 18.2% in test [2].

In the case of `O=C(NO)c1ccc(NCc2nc(-c3ccccc3)nn2-c2cccc(Cl)c2)cc1`, the concentration for half-maximal inhibition (IC50) came to 678 nM in test [3], 4400 nM in test [4] and 13.7 µM in test [5]. In addition, the inhibition in test [1] was 62.3%; in test [2], 14.7%.

With `NNC(=O)c1ccc(NCc2nc(-c3ccccc3)nn2-c2ccccc2)cc1`, the inhibition in test [1] was found to be 10%; in test [2], 4.1%.

As to `CNC(=O)c1ccc(NCc2nc(-c3ccccc3)nn2-c2ccccc2)cc1`, the values for the inhibition in test [1] and in test [2] were -3.6% and -0.55%, respectively.

As for `CC(C)c1ccc(-n2nc(-c3ccccc3)nc2CNc2ccc(C(=O)NO)cc2)cc1`, the inhibition in test [1] stood at 52.6%; in test [2], 17.3%.

As for `Cc1ccccc1-c1nc(CNc2ccc(C(=O)NO)cc2)n(-c2ccccc2)n1`, the inhibition in test [1] is 53.2%; in test [2], 16.5%.

For the compound `Cc1ccc(-n2nc(-c3ccccc3)nc2CNc2ccc(C(=O)NO)cc2)cc1`, the results for the IC50 in test [3] and in test [4] were 310 nM and 1720 nM, respectively. In addition, the inhibition amounted to 60.7% in test [1] and 24.6% in test [2].

As to `O=C(NO)c1ccc(NCc2nc(-c3ccncc3)nn2-c2ccccc2)cc1`, the inhibition is 30.8% in test [1] and 7.5% in test [2].

On to `Cc1ccc(-c2nc(CNc3ccc(C(=O)NO)cc3)n(-c3ccccc3)n2)o1`, for which the values for the inhibition in test [1] and in test [2] were 60.7% and 22.3%, respectively.

For `O=C(NO)c1ccc(NCc2nc(-c3ccc(Cl)c(Cl)c3)nn2-c2ccccc2)cc1`, the inhibition in test [1] came to 34.5%; in test [2], 7.6%.

In the case of `Cc1cc(C)cc(-n2nc(-c3ccccc3)nc2CNc2ccc(C(=O)NO)cc2)c1`, the results for the inhibition in test [1] and in test [2] were 49.8% and 12.4%, respectively.

For the compound `O=C(NO)c1ccc(NCc2nc(-c3ccccc3)nn2-c2ccc(Cl)cc2)cc1`, the inhibition in test [1] was determined as 55.4%; in test [2], 18%.
